Earlier results, collected in patent publication US12357587B2, “Cannabinoid monoterpene based pharmaceutical topical composition for musculoskeletal pain” (MOUNTAIN VALLEY MD INC., priority 2022, dated 2025).

How the values were obtained:
[1] = purified compound; rat chronic constriction injury

SMILES	relief of neuropathic pain [1]	decrease in white blood cell count (observed in 7% of patients, usually reversed within the first 4 months of therapy) [%]	increase in the risk of blood dyscrasias (patients taking carbamezepine)	patients with a 25% decrease in white blood cell count (usually reversed within the first 4 months of therapy) [%]
C=C(C)[C@@H]1CCC(C)=C[C@H]1c1c(O)cc(CCCCC)cc1O [cannabidiol (CBD), cannabidiol]	partially relieved neuropathic pain			
NC(=O)N1c2ccccc2C=Cc2ccccc21 [carbamezepine]		25	five- to eight	7
